Measurements from the NIST ThermoML archive (doi:10.1021/je900276q).
Where “and” joins values, the source holds several entries; their conditions need not be identical. Equal values may be shown once. ± gives the expanded uncertainty stated by the source.

Conditions: Crystal, Calculated from knudsen effusion weight loss

[Cl][Ga]([Cl])[Cl] [gallium chloride]
Conditions | vapor or sublimation pressure
289 K | 0.004266 ± 0.00052 kPa
290.5 K | 0.005754 ± 0.00073 kPa
292 K | 0.006166 ± 0.00078 kPa
293 K | 0.006761 ± 0.00087 kPa and 0.006918 ± 0.00089 kPa
293.5 K | 0.007413 ± 0.00096 kPa
294 K | 0.007943 ± 0.001 kPa
295.5 K | 0.00912 ± 0.0012 kPa
296 K | 0.008913 ± 0.0012 kPa
297 K | 0.01148 ± 0.0015 kPa and 0.01072 ± 0.0014 kPa and 0.01047 ± 0.0014 kPa
298 K | 0.01175 ± 0.0016 kPa
298.5 K | 0.01175 ± 0.0016 kPa
299 K | 0.01318 ± 0.0018 kPa
299.5 K | 0.01349 ± 0.0018 kPa
300.5 K | 0.01413 ± 0.0019 kPa and 0.0138 ± 0.0019 kPa
301 K | 0.0166 ± 0.0023 kPa
302 K | 0.01698 ± 0.0024 kPa
303 K | 0.01905 ± 0.0027 kPa and 0.0182 ± 0.0026 kPa
303.5 K | 0.02089 ± 0.003 kPa
304.5 K | 0.02042 ± 0.0029 kPa
305 K | 0.02344 ± 0.0034 kPa and 0.02089 ± 0.003 kPa
306 K | 0.02512 ± 0.0036 kPa and 0.02754 ± 0.004 kPa
307 K | 0.02884 ± 0.0042 kPa and 0.0263 ± 0.0038 kPa
308 K | 0.0309 ± 0.0045 kPa and 0.02951 ± 0.0043 kPa and 0.02818 ± 0.0041 kPa

[F][Ga]([F])[F] [gallium fluoride (GaF3)]
Conditions | vapor or sublimation pressure
808 K | 4.677e-05 ± 4.1e-06 kPa
810 K | 3.981e-05 ± 3.5e-06 kPa
813 K | 4.677e-05 ± 4.1e-06 kPa
816 K | 4.677e-05 ± 4.1e-06 kPa
818 K | 6.31e-05 ± 5.5e-06 kPa
820 K | 5.495e-05 ± 4.8e-06 kPa
822 K | 6.31e-05 ± 5.5e-06 kPa
827 K | 9.55e-05 ± 8.4e-06 kPa and 7.943e-05 ± 7e-06 kPa
830 K | 9.55e-05 ± 8.4e-06 kPa
835 K | 0.0001096 ± 9.6e-06 kPa
836 K | 0.0001413 ± 1.2e-05 kPa
837 K | 0.0001096 ± 9.6e-06 kPa
839 K | 0.0001259 ± 1.1e-05 kPa
842 K | 0.0002239 ± 2e-05 kPa
843 K | 0.0001413 ± 1.2e-05 kPa
844 K | 0.000257 ± 2.3e-05 kPa
845 K | 0.0001905 ± 1.7e-05 kPa and 0.0002818 ± 2.5e-05 kPa
846 K | 0.000166 ± 1.5e-05 kPa
847 K | 0.0001738 ± 1.5e-05 kPa and 0.000257 ± 2.3e-05 kPa
852 K | 0.0002692 ± 2.4e-05 kPa
853 K | 0.0002188 ± 1.9e-05 kPa and 0.0003715 ± 3.2e-05 kPa
854 K | 0.0004074 ± 3.6e-05 kPa
855 K | 0.0002344 ± 2.1e-05 kPa and 0.0004677 ± 4.1e-05 kPa
856 K | 0.0002512 ± 2.2e-05 kPa
857 K | 0.0003715 ± 3.3e-05 kPa
859 K | 0.0006026 ± 5.3e-05 kPa
861 K | 0.0003802 ± 3.3e-05 kPa
862 K | 0.0003162 ± 2.8e-05 kPa
863 K | 0.0005888 ± 5.1e-05 kPa and 0.0005495 ± 4.8e-05 kPa
864 K | 0.0003311 ± 2.9e-05 kPa
866 K | 0.0005495 ± 4.8e-05 kPa
867 K | 0.0003802 ± 3.3e-05 kPa
869 K | 0.0005248 ± 4.6e-05 kPa
870 K | 0.0008913 ± 7.8e-05 kPa
871 K | 0.0004365 ± 3.8e-05 kPa and 0.0008128 ± 7.1e-05 kPa
872 K | 0.0004571 ± 4e-05 kPa and 0.0008128 ± 7.1e-05 kPa
874 K | 0.0007413 ± 6.5e-05 kPa
876 K | 0.000537 ± 4.7e-05 kPa
878 K | 0.0007586 ± 6.6e-05 kPa
880 K | 0.0006166 ± 5.4e-05 kPa and 0.001096 ± 0.00012 kPa
881 K | 0.001349 ± 0.00015 kPa
882 K | 0.0006457 ± 5.6e-05 kPa
884 K | 0.0009772 ± 8.6e-05 kPa and 0.001259 ± 0.00014 kPa
885 K | 0.0007943 ± 7e-05 kPa and 0.001175 ± 0.00013 kPa
890 K | 0.0008511 ± 7.4e-05 kPa and 0.000871 ± 7.6e-05 kPa and 0.001585 ± 0.00018 kPa
893 K | 0.001413 ± 0.00016 kPa and 0.002089 ± 0.00024 kPa
894 K | 0.001202 ± 0.00013 kPa and 0.001862 ± 0.00021 kPa and 0.001622 ± 0.00018 kPa
895 K | 0.001096 ± 0.00012 kPa
898 K | 0.002138 ± 0.00025 kPa
900 K | 0.001349 ± 0.00015 kPa
901 K | 0.001862 ± 0.00021 kPa and 0.002042 ± 0.00023 kPa
902 K | 0.002399 ± 0.00028 kPa
903 K | 0.00166 ± 0.00019 kPa and 0.002884 ± 0.00034 kPa
904 K | 0.001622 ± 0.00018 kPa
907 K | 0.002818 ± 0.00033 kPa
909 K | 0.002455 ± 0.00029 kPa and 0.001778 ± 0.0002 kPa
910 K | 0.00389 ± 0.00047 kPa and 0.002818 ± 0.00033 kPa
911 K | 0.002138 ± 0.00025 kPa
913 K | 0.002188 ± 0.00025 kPa and 0.003467 ± 0.00042 kPa
916 K | 0.002455 ± 0.00029 kPa and 0.003802 ± 0.00046 kPa
918 K | 0.00309 ± 0.00037 kPa
919 K | 0.00389 ± 0.00047 kPa
920 K | 0.00537 ± 0.00067 kPa
921 K | 0.002884 ± 0.00034 kPa
923 K | 0.003236 ± 0.00039 kPa
924 K | 0.005012 ± 0.00063 kPa
925 K | 0.005248 ± 0.00066 kPa
928 K | 0.007079 ± 0.00091 kPa
929 K | 0.005495 ± 0.00069 kPa
934 K | 0.007413 ± 0.00096 kPa
935 K | 0.007244 ± 0.00093 kPa
938 K | 0.00955 ± 0.0013 kPa
939 K | 0.007413 ± 0.00096 kPa
942 K | 0.00955 ± 0.0013 kPa
945 K | 0.01023 ± 0.0014 kPa
946 K | 0.009333 ± 0.0012 kPa
947 K | 0.01288 ± 0.0018 kPa
948 K | 0.01175 ± 0.0016 kPa
955 K | 0.01445 ± 0.002 kPa
956 K | 0.01413 ± 0.0019 kPa
958 K | 0.01698 ± 0.0024 kPa and 0.01318 ± 0.0018 kPa

[I][Ga]([I])[I] [gallium iodide]
Conditions | vapor or sublimation pressure
344.5 K | 0.0001445 ± 1.3e-05 kPa
346 K | 0.0001698 ± 1.5e-05 kPa and 0.0001445 ± 1.3e-05 kPa
347 K | 0.000195 ± 1.7e-05 kPa
348 K | 0.000195 ± 1.7e-05 kPa
348.5 K | 0.0001445 ± 1.3e-05 kPa
349 K | 0.000195 ± 1.7e-05 kPa
349.5 K | 0.0002455 ± 2.2e-05 kPa and 0.0002951 ± 2.6e-05 kPa
350 K | 0.000195 ± 1.7e-05 kPa
351.5 K | 0.0003388 ± 3e-05 kPa
352 K | 0.0002455 ± 2.2e-05 kPa
352.5 K | 0.0003388 ± 3e-05 kPa
354 K | 0.0004365 ± 3.8e-05 kPa and 0.0003388 ± 3e-05 kPa
355 K | 0.0003388 ± 3e-05 kPa and 0.000389 ± 3.4e-05 kPa
356 K | 0.0004365 ± 3.8e-05 kPa
357 K | 0.0004365 ± 3.8e-05 kPa
357.5 K | 0.0006761 ± 5.9e-05 kPa and 0.0004898 ± 4.3e-05 kPa
359.5 K | 0.000537 ± 4.7e-05 kPa
361.5 K | 0.0006761 ± 5.9e-05 kPa
362 K | 0.000871 ± 7.6e-05 kPa
364 K | 0.0009333 ± 8.2e-05 kPa and 0.0007762 ± 6.8e-05 kPa
365.5 K | 0.0009772 ± 8.6e-05 kPa
367 K | 0.001148 ± 0.00012 kPa
367.5 K | 0.00123 ± 0.00013 kPa
368.5 K | 0.001122 ± 0.00012 kPa and 0.00123 ± 0.00013 kPa
370 K | 0.001413 ± 0.00016 kPa
372 K | 0.001445 ± 0.00016 kPa and 0.00166 ± 0.00019 kPa
372.5 K | 0.00166 ± 0.00019 kPa
373 K | 0.001905 ± 0.00022 kPa and 0.001738 ± 0.0002 kPa
374.5 K | 0.002042 ± 0.00023 kPa and 0.001995 ± 0.00023 kPa
375.5 K | 0.002291 ± 0.00026 kPa
377 K | 0.002399 ± 0.00028 kPa
377.5 K | 0.002692 ± 0.00032 kPa
378 K | 0.002951 ± 0.00035 kPa
379 K | 0.002951 ± 0.00035 kPa
380 K | 0.002951 ± 0.00035 kPa
381.5 K | 0.003715 ± 0.00045 kPa
382 K | 0.004266 ± 0.00052 kPa
383 K | 0.00389 ± 0.00047 kPa
383.5 K | 0.004169 ± 0.00051 kPa
384 K | 0.004898 ± 0.00061 kPa
387.5 K | 0.006607 ± 0.00085 kPa and 0.006026 ± 0.00076 kPa and 0.00631 ± 0.0008 kPa
389.5 K | 0.007244 ± 0.00093 kPa
390.5 K | 0.00871 ± 0.0011 kPa and 0.007244 ± 0.00093 kPa
391.5 K | 0.00871 ± 0.0011 kPa
393.5 K | 0.01096 ± 0.0015 kPa and 0.01 ± 0.0013 kPa
394 K | 0.009772 ± 0.0013 kPa
397 K | 0.0138 ± 0.0019 kPa
398 K | 0.01349 ± 0.0018 kPa
400.5 K | 0.01778 ± 0.0025 kPa
401 K | 0.01698 ± 0.0024 kPa
